Assay results from PubChem BioAssay (NCI).
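Assay format: 96-well plates, 48-hour exposure. TGI: total growth inhibition.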

Key:
Assay in all cases: DTP human tumour cell line panel, 48 h
DU-145 prostate = system: DU-145 prostate
HOP-62 NSCLC = system: HOP-62 NSCLC
HOP-92 NSCLC = system: HOP-92 NSCLC
HT29 colon = system: HT29 colon
MOLT-4 leukemia = system: MOLT-4 leukemia
PC-3 prostate = system: PC-3 prostate
RXF 393 renal = system: RXF 393 renal
SF-268 CNS = system: SF-268 CNS
SR leukemia = system: SR leukemia
SW-620 colon = system: SW-620 colon
RPMI-8226 leukemia = system: RPMI-8226 leukemia

| Structure (SMILES) | TGI (DU-145 prostate) [µM] | TGI (HOP-62 NSCLC) [µM] | TGI (HOP-92 NSCLC) [µM] | TGI (HT29 colon) [µM] | TGI (MOLT-4 leukemia) [µM] | TGI (PC-3 prostate) [µM] | TGI (RXF 393 renal) [µM] | TGI (SF-268 CNS) [µM] | TGI (SR leukemia) [µM] | TGI (SW-620 colon) [µM] | TGI (RPMI-8226 leukemia) [µM] |
| --- | --- | --- | --- | --- | --- | --- | --- | --- | --- | --- | --- |
| CC[C@@]1(O)C(=O)OCc2c1cc1n(c2=O)Cc2c-1nc1ccccc1c2/C=N\NC(=O)C(C)N (stereo partly drawn) | 0.398 | 16 | 7.7 | > 47.1 | 2.08 | > 100 | 9.18 | > 100 | 0.119 | > 100 |  |
| COC(=O)C1CCC(=O)N1C(c1ccc2c(c1)OCO2)c1ccc2c(c1)OCO2 (stereo not drawn) | > 100 | > 100 | > 100 | > 100 | > 100 | > 100 |  | > 100 | > 100 | > 100 | > 100 |
| CC1(C)CC[C@]2(C(=O)O)CC[C@]3(C)C(=CC[C@@H]4[C@@]5(C)CC[C@H](OC6OC(CO)C(O)C(O)C6OC6OC(CO)C(O)C(O)C6O)C(C)(C)[C@@H]5CC[C@]43C)[C@@H]2C1 (stereo partly drawn) | 31.4 | 32.7 | 31.7 | 30.2 | 48.3 | 31.2 | 37.3 | 32 | 68 | 48.3 | 62.3 |
| CN1CCN(c2ccc(-n3cc(C(=O)O)c(=O)c4cc(F)c(N5CCN(C)CC5)cc43)nc2)CC1 | > 100 | > 100 | > 100 | > 100 | > 100 | > 100 | > 100 | > 100 | > 100 | > 100 | > 100 |
| CCc1n[nH]c(=O)n1NC(=O)/C=C\C(=O)O | > 100 | > 100 |  | > 100 | > 100 | > 100 | > 100 | > 100 | > 100 |  |  |
| C=C(C(=O)O)[C@@H]1C[C@@H]2O[C@H]1CC(C)=CCC/C(C)=C/CC[C@@]2(C)O | > 100 |  | > 100 |  | > 100 | > 100 | > 100 | > 100 | > 100 | > 100 | > 100 |
| CN(C)/C=N/S(=O)(=O)c1nn2c(C=O)c(-c3ccc(-c4ccc([N+](=O)[O-])cc4)o3)nc2s1 | 26.6 | 27.7 | 8.12 | 2.19 | 14.3 | 14.3 | 5.04 | > 29 | 5.4 | > 23.5 | 13.5 |
| Cc1ccc(C)c(NC(=O)C(Cc2c[nH]c3ccccc23)NC(=O)OCc2ccccc2)c1 (stereo not drawn) | 33.7 | > 100 | 57.5 | 45.1 | 19.6 | 28.6 | 22 | > 100 | 48.2 | 35.5 | 44 |
| O=C(O)C(F)(OC(F)(F)C(F)(OC(F)(F)C(F)(F)C(F)(F)F)C(F)(F)F)C(F)(F)F (stereo not drawn) | > 100 | > 100 | > 100 | > 100 | > 100 | > 100 | > 100 | > 100 | > 100 | > 100 | > 100 |
| CCN(CC)c1nc(N(C)C)c2cc(OC)ccc2n1 | > 100 | > 100 | > 100 | > 100 | 65.1 | > 100 | > 100 | 91.8 | 76.9 | > 100 | 61.2 |
| CCOC1SC(SC)=NN1C(=O)C(OC(C)=O)C(OC(C)=O)C(OC(C)=O)C(OC(C)=O)C(=O)N1N=C(SC)SC1OCC (stereo not drawn) | > 100 | > 100 | > 100 | > 100 | > 100 | > 100 | > 100 | > 100 | > 100 | > 100 | > 100 |
| COC(Cc1ccccc1)NC(C)=O (stereo not drawn) | > 100 | > 100 | > 100 | > 100 | > 100 | > 100 | > 100 | > 100 | > 100 | > 100 | > 100 |
| Cc1n[nH]c(=O)n1N1C(=O)c2ccccc2C1=O | > 100 | > 100 | > 100 | > 100 | > 100 | > 100 |  |  | > 100 | > 100 |  |
| Cc1cc(C#N)c(Nc2c(C)cccc2[N+](=O)[O-])s1 | > 100 | 75.2 | 68.3 |  | > 100 | 54.4 | 55.4 | 84.9 | > 100 | > 100 | > 100 |
| Cc1nc(C)c(N2CCN(C#N)CC2)c(=O)[nH]1 | > 100 | > 100 | > 100 | > 100 | > 100 | > 100 | > 100 | > 100 | > 100 | > 100 | > 100 |
| CC(=O)OCc1cn(S(=O)(=O)c2ccc(C)cc2)cn1 | > 100 | > 100 | > 100 | > 100 | > 100 | > 100 | > 100 | 97.5 | > 100 | > 100 | > 100 |
| Cc1cc(-c2nc3cc(F)c(F)cc3s2)ccc1N | > 100 | > 71.3 | > 100 | > 100 | > 100 | > 100 | > 100 | > 100 | > 100 | > 100 | > 100 |
| NC(CCCCNC(=O)C(Cc1ccccc1)NC(=O)OCc1ccccc1)C(=O)NC(CCCCNC(=O)C(Cc1ccccc1)NC(=O)OCc1ccccc1)C(=O)NC(CCCCNC(=O)C(Cc1ccccc1)NC(=O)OCc1ccccc1)C(=O)NC(CCCCNC(=O)C(Cc1ccccc1)NC(=O)OCc1ccccc1)C(=O)NC(CCCCNC(=O)C(Cc1ccccc1)NC(=O)OCc1ccccc1)C(=O)NC(CCCCNC(=O)C(Cc1ccccc1)NC(=O)OCc1ccccc1)C(=O)O (stereo not drawn) | > 100 | > 100 |  | > 100 | > 100 | > 100 |  | > 100 | > 100 | > 100 | > 100 |
| CC(C)(C)NC1C2CCC(C)(C1O)C2(C)C (stereo not drawn) | > 100 | > 100 |  | > 100 | > 100 | > 100 | > 100 | > 100 | > 100 | > 100 | > 100 |
| COc1cc(/C=C(\C#N)c2ccccn2)cc(Br)c1O | > 100 | > 100 |  | > 100 | > 100 | > 100 | > 100 | > 100 | > 100 | > 100 | > 100 |
| O=C1NN(c2ccccc2)C(=O)C2C3c4ccccc4C(c4ccccc43)C12 (stereo not drawn) | > 100 | > 100 | > 100 | > 100 |  | > 100 | > 100 | > 100 | > 100 | > 100 | > 100 |
| N=c1oc2c(Cl)cc(Cl)cc2cc1C(=O)Nc1ccccn1 | > 100 | > 100 |  | > 100 | > 100 | > 100 | 47.7 | > 100 | 65.9 | > 100 | 60.8 |
| CC1OC(OC2CC(O)(C(=O)CO)Cc3c(O)c4c(c(O)c32)C(=O)c2ccccc2C4=O)CC(N)C1O (stereo not drawn) | 0.0836 | 0.0782 | 1.04 | 0.493 | < 0.0819 | 0.954 | 0.152 | 0.549 |  | 2.48 | 0.235 |
| CCCCP(CCCC)(CCCC)=C(C(=O)OC)C(C(=O)OC)=C1SC(C(=O)OC)=C(C(=O)OC)S1 | > 100 | 49.3 |  | 30.7 | 44.5 | 51 | 22.8 | > 100 | > 100 | 87 | > 100 |
| S=C1SC(c2ccc(Cl)cc2)(c2ccc(Cl)cc2)c2ccccc21 | > 100 | > 100 | > 100 | > 100 | > 100 | > 100 | > 100 | > 100 | 89.9 | > 100 |  |
| Cc1nc2c(ncn2CCO)c(=O)[nH]1 | > 100 | > 100 |  | > 100 |  | > 100 | > 100 | > 100 | > 100 | > 100 |  |
| COC(=O)CCC(=O)c1ccc2c(c1)CC1(C2)Cc2ccc3c(c2C1)CCCC3=O (stereo not drawn) | > 100 | 97.4 | 64.7 | > 76.9 | 18.2 | > 79.9 | 97.4 | > 100 | 8.05 | > 100 |  |
| CC(=O)OC1COC(Nn2c(=O)[nH]c3ccccc3c2=O)C(OC(C)=O)C1OC(C)=O (stereo not drawn) | > 100 | > 100 | > 100 | > 100 | > 100 | > 100 |  | > 100 | > 100 | > 100 | > 100 |
